Among the data in patent publication US20240246941A1, “SUBSTITUTED 4-(3-AMINOPROP-1-YL)AMINOQUINOLINE ANALOGS AS MODULATORS OF MELANOMA-ASSOCIATED ANTIGEN 11 UBIQUITIN LIGASE” (ST. JUDE CHILDREN'S RESEARCH HOSPITAL, INC., priority 2020, published 2024) are TR-FRET signal values, retold here.

Sequence of MAGE-A11:PCF11 (P43364 218-429): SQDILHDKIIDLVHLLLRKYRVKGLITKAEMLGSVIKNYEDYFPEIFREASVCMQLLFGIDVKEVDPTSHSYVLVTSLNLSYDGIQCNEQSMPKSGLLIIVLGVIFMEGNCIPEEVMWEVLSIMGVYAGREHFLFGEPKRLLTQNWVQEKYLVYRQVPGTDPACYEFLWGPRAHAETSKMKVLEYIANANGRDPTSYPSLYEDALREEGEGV

For the first assay, the target named is MAGE-A11:PCF11 (Homo sapiens (Human), UniProt P43364). Description: TR-FRET single point screening at 15 μM. The arrangement: unit not given here. The format is binding. The conditions noted are these: single point TR-FRET screening at 15 μM against MAGE-A11:PCF11. A digest of the protocol:
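Single-point screen at 15 μM (0.25% DMSO) measuring disruption of GST-MAGEA11 (5 nM) binding to FAM-PCF11_4 peptide (200 nM) detected by Tb-anti-GST (5 nM). Buffer 50 mM Tris pH 7.5, 20 mM MgCl2, 0.1 mg/ml BSA, 1 mM DTT; 90 min at ~25 °C; 520/490 nm ratio converted to % inhibition versus controls.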
`COc1ccc2ncc(S(=O)(=O)c3ccccc3)c(N3CCN(c4cccc(C)c4C)CC3)c2c1` [SJ000117082] came in with a TR-FRET signal of −241.8.

The compound `CCN1CCN(c2c(S(=O)(=O)c3ccc(C)c(C)c3)cnc3ccc(OC)cc23)CC1` [SJ000247335] registered a TR-FRET signal of −4.579.

Compound `CCOc1ccc2ncc(C(=O)c3ccc(OC)cc3)c(N3CCN(CC)CC3)c2c1` [SJ000247243] displayed a TR-FRET signal of −9.084.

Consider `COc1ccc2nc3cc(Cl)ccc3c(NCCCNCc3ccc(C)s3)c2c1` [SJ000523029], for which the TR-FRET signal is −304.8.

For the compound `Clc1ccc2c(NCCCCN(Cc3ccccc3)Cc3ccco3)ccnc2c1` [SJ000312681], the TR-FRET signal was found to be 12.05.

In turn, `COc1ccc(F)c(CNCCCNc2c3ccc(Cl)cc3nc3ccc(OC)cc23)c1` [SJ000520998] came in with a TR-FRET signal of −355.

Consider `Clc1ccc2c(NCCCCN(Cc3ccccc3)Cc3ccc(Br)s3)ccnc2c1` [SJ000312688], for which the TR-FRET signal turned out to be 22.04.

With `COc1cccc(CN(CCCCNc2ccnc3cc(Cl)ccc23)Cc2ccccc2)c1` [SJ000361210], the TR-FRET signal was 11.72.

As for `C=CCOCC(O)CN1CCN(c2cc(C)nc3ccccc23)CC1` (stereo not drawn) [SJ000227652], the TR-FRET signal is on record as −0.207.

`Cc1[nH]cnc1CN(CCCCNc1ccnc2cc(Cl)ccc12)Cc1ccccc1` [SJ000520428] gave a TR-FRET signal of 15.11.

`O=C(O)c1ccccc1CN(CCCCNc1ccnc2cc(Cl)ccc12)Cc1ccccc1` [SJ000361203] registered a TR-FRET signal of 4.099.

Compound `Fc1ccc(CN(CCCCNc2ccnc3cc(Cl)ccc23)Cc2ccccc2)cc1` [SJ000522725] registered a TR-FRET signal of 30.2.

For the compound `Cc1ccc(S(=O)(=O)c2cnc3ccccc3c2N2CCN(C)CC2)cc1` [SJ000247268], the TR-FRET signal is −13.59.

Take `FC(F)(F)Oc1ccccc1CN(CCCCNc1ccnc2cc(Cl)ccc12)Cc1ccccc1` [SJ000520459]: the TR-FRET signal amounted to 30.86.

On to `CCOC(=O)c1cnc2c(C)c(Cl)ccc2c1NCCN(C)C` [SJ000037393], for which the TR-FRET signal is recorded as −1.333.

Compound `CCOc1ccc2ncc(S(=O)(=O)c3ccc(Cl)cc3)c(N3CCN(CC)CC3)c2c1` [SJ000083969] came in with a TR-FRET signal of −4.989.

Take `COc1cc2ncc(S(=O)(=O)c3ccc(C)cc3)c(N3CCN(C)CC3)c2cc1OC` [SJ000083951]: the TR-FRET signal was 1.313.

In turn, `CCN1CCN(c2c(S(=O)(=O)c3ccc(C)c(C)c3)cnc3ccc(F)cc23)CC1` [SJ000247345] had a TR-FRET signal of 1.118.

Compound `CCOC(=O)c1cnc2c(C)cc(Cl)cc2c1NCCN(C)C` [SJ000027210] yielded a TR-FRET signal of 3.834.

In turn, `CCCN(CCCNc1c2ccc(Cl)cc2nc2ccc(OC)cc12)Cc1ccccc1OC` [SJ000520950] displayed a TR-FRET signal of −271.1.

With `O=[N+]([O-])c1ccccc1CN1CCC(Nc2ccnc3cc(Cl)ccc23)CC1` [SJ000523094], the TR-FRET signal is −2.026.

Regarding `CCCCCN1CCC(Nc2ccnc3cc(Cl)ccc23)CC1` [SJ000523088], the TR-FRET signal worked out at 12.17.

As for `COc1ccc2ncc(S(=O)(=O)c3ccc(C)c(C)c3)c(N3CCN(C)CC3)c2c1` [SJ000247333], the TR-FRET signal is −8.554.

The compound `COc1ccc2nc3cc(Cl)ccc3c(NCCCNCc3ccc(C)o3)c2c1` [SJ000361089] returned a TR-FRET signal of −229.

With `O=C(O)CCCNC(=O)CNc1c2ccccc2nc2ccccc12` [SJ000016432], the TR-FRET signal is given as 9.598.

Turning to `Cc1ccc2ncc(S(=O)(=O)c3ccccc3)c(N3CCN(c4ccccc4F)CC3)c2c1` [SJ000315092], the TR-FRET signal was −33.48.

`COc1ccc2nc3cc(Cl)ccc3c(NCCCNCc3cccc4c3OCO4)c2c1` [SJ000520991] came in with a TR-FRET signal of −257.1.

`COc1ccc(CN2CCC(Nc3ccnc4cc(Cl)ccc34)CC2)cc1` [SJ000523090] displayed a TR-FRET signal of 23.72.

Consider `CCOC(=O)c1cnc2c(CC)cccc2c1NCCN1CCOCC1` [SJ000279714], for which the TR-FRET signal is listed as −6.103.

`Clc1ccc2c(NC3CCN(Cc4ccc5ccccc5c4)CC3)ccnc2c1` [SJ000523100] displayed a TR-FRET signal of 4.171.

Regarding `COc1ccc2nc3cc(Cl)ccc3c(NCCCNCc3ccc(Cl)c([N+](=O)[O-])c3)c2c1` [SJ000523036], the TR-FRET signal is given as −95.38.

As for `Clc1ccc2c(NC3CCN(Cc4ccc(Cl)o4)CC3)ccnc2c1` [SJ000311180], the TR-FRET signal is listed as 0.6827.

In turn, `C=CCOCC(O)CN1CCN(c2cc(C(F)(F)F)nc3ccccc23)CC1` (stereo not drawn) [SJ000228017] displayed a TR-FRET signal of −2.128.

On to `Cc1cc(NC(=O)CN[C@H]2CCN(Cc3ccccc3)C2)c2ccccc2n1` [SJ000832405], for which the TR-FRET signal was found to be 4.364.

`CCOc1ccc2ncc(S(=O)(=O)c3ccc(C)cc3)c(N3CCN(c4ccccc4F)CC3)c2c1` [SJ000117077] yielded a TR-FRET signal of 5.159.

`CC(C)(C)CCN(CCCCNc1ccnc2cc(Cl)ccc12)Cc1ccccc1` [SJ000357537] came in with a TR-FRET signal of 34.54.

The assay is the same for the next values; noted with them: single point TR-FRET screening of quinoline compounds against MAGE-A11:PCF11; 15 μM.
With `CCCN(CCCNc1ccnc2cc(C(F)(F)F)ccc12)Cc1cccc(OC(F)(F)F)c1` [SJ000520473], the TR-FRET signal is recorded as 9.085.

As to `CCCN(CCCNc1ccnc2cc(C(F)(F)F)ccc12)Cc1ccc(CC)cc1` [SJ000521009], the TR-FRET signal stood at 31.77.

The compound `CCCN(CCCNc1ccnc2cc(C(F)(F)F)ccc12)CCOCc1ccccc1` [SJ000521011] had a TR-FRET signal of 25.82.

As to `CCCN(CCCNc1ccnc2cc(Cl)ccc12)Cc1cnn(C)c1` [SJ000523009], the TR-FRET signal is reported as 10.06.

As for `COc1ccc(F)c(CN(CCCNc2ccnc3cc(Cl)ccc23)Cc2ccccc2)c1` [SJ000520445], the TR-FRET signal is on record as 4.762.

`CCCN(CCCNc1ccnc2cc(Cl)ccc12)Cc1ccc(F)cc1` [SJ000522759]: the TR-FRET signal was 20.79.

As for `Clc1ccc2c(NCCCNCc3cc(Br)cs3)ccnc2c1` [SJ000521028], the TR-FRET signal is listed as 22.11.

With `O=C(C[C@H]1CC[C@]2(CC1)OO[C@]1(O2)C2CC3CC(C2)CC1C3)NCCCNc1ccnc2cc(Cl)ccc12` [SJ000578380], the TR-FRET signal was 28.48.

On to `COc1ccc2nc3cc(Cl)ccc3c(NCCCNCc3cccc(C)c3)c2c1` [SJ000522956], for which the TR-FRET signal is recorded as −7.089.

Compound `CCOC(=O)c1cnc2ccc(OCC)cc2c1NCCCN1CCOCC1.Cl` [SJ000279525] displayed a TR-FRET signal of 5.532.

Take `c1coc(CNCCCNc2ccnc3cc(CC4CCCCC4)ccc23)c1` [SJ000311250]: the TR-FRET signal was determined as 40.66.

Regarding `c1coc(CNCCCNc2ccnc3cc(C4CCCCC4)ccc23)c1` [SJ000311262], the TR-FRET signal worked out at 32.96.

In the case of `CC(CCNCCCNc1ccnc2cc(Cl)ccc12)c1ccccc1` (stereo not drawn) [SJ000523053], the TR-FRET signal worked out at 19.01.

As for `CCCCCNCCCNc1ccnc2cc(Cl)ccc12` [SJ000523057], the TR-FRET signal stood at 25.82.

For `Oc1ccccc1CN(CCCNc1ccnc2cc(Cl)ccc12)Cc1ccccc1` [SJ000361167], the TR-FRET signal came to 19.27.

For the compound `CCCN(CCCNc1ccnc2cc(Cl)ccc12)Cc1c2ccccc2cc2ccccc12` [SJ000522762], the TR-FRET signal amounted to 15.49.

Turning to `CCCN(CCCNc1c2ccc(Cl)cc2nc2ccc(OC)cc12)CC(C)C` [SJ000575150], the TR-FRET signal is on record as −21.37.

In turn, `COc1cccc(F)c1CN(CCCNc1ccnc2cc(Cl)ccc12)Cc1ccccc1` [SJ000357500] came in with a TR-FRET signal of −2.857.

As for `Cn1ccnc1CNCCCNc1ccnc2cc(Cl)ccc12` [SJ000521040], the TR-FRET signal turned out to be 1.449.

In turn, `CCCN(CCCNc1ccnc2cc(Cl)ccc12)Cc1ccc(Cl)c([N+](=O)[O-])c1` [SJ000522761] returned a TR-FRET signal of 16.95.

As for `CCOC(=O)c1cnc2c(OC)cccc2c1NCCCN1CCOCC1` [SJ000180455], the TR-FRET signal is reported as 3.635.

`Clc1ccc2c(NCCCNCc3cc4ccccc4o3)ccnc2c1` [SJ000521029] displayed a TR-FRET signal of 17.91.

Regarding `Clc1ccc2c(NCCCNCc3nc4ccccc4s3)ccnc2c1` [SJ000521034], the TR-FRET signal is 4.695.

For `CCCN(CCCNc1ccnc2cc(C(F)(F)F)ccc12)CCC(C)(C)C` [SJ000520476], the TR-FRET signal was 32.33.

Take `Clc1ccc2c(NCCCN(Cc3ccccc3)Cc3cccc4ccccc34)ccnc2c1` [SJ000361181]: the TR-FRET signal came to 26.23.

In turn, `CCCCCN(CCC)CCCNc1ccnc2cc(C(F)(F)F)ccc12` [SJ000361271] gave a TR-FRET signal of 30.93.

Take `CCCN(CCCNc1ccnc2cc(Cl)ccc12)Cc1cc(OC)ccc1F` [SJ000522996]: the TR-FRET signal is on record as 26.66.

In the case of `FC(F)(F)c1ccc2c(NCCCNCc3ccco3)ccnc2c1` [SJ000361113], the TR-FRET signal was 18.05.

`CCCN(CCCNc1ccnc2cc(Cl)ccc12)Cc1ccccc1F` [SJ000522757] yielded a TR-FRET signal of 21.99.

`Clc1cccc(-c2ccc(CNCCCNc3ccnc4cc(Cl)ccc34)o2)c1` [SJ000523069] returned a TR-FRET signal of 33.51.

`CCCN(CCCNc1c2ccc(Cl)cc2nc2ccc(OC)cc12)Cc1cccc(C(F)(F)F)c1` [SJ000522986] gave a TR-FRET signal of 16.15.

On to `Cc1ccc(CN(CCCNc2ccnc3cc(Cl)ccc23)Cc2ccccc2)o1` [SJ000312669], for which the TR-FRET signal is given as 2.84.

Compound `FC(F)(F)c1ccc2c(NCCCNCc3cccnc3)ccnc2c1` [SJ000521042] yielded a TR-FRET signal of 15.04.

Compound `Cc1ccc(CNCCCNc2ccnc3cc(Cl)ccc23)s1` [SJ000311190] came in with a TR-FRET signal of 10.83.

Compound `COc1ccccc1Oc1ccc2c(NCCCNCc3ccco3)ccnc2c1` [SJ000311210] yielded a TR-FRET signal of 24.56.

On to `CCCN(CCCNc1ccnc2cc(C(F)(F)F)ccc12)Cc1cnn(C)c1` [SJ000575182], for which the TR-FRET signal stood at 15.68.
